# In patent US20260297042A1, “BIARYLAMIDE DERIVATIVES AND THEIR USE AS PKMYT1 INHIBITORS” (CANCER RESEARCH TECHNOLOGY LIMITED, priority 2023, published 2026):
# How the values were obtained:
# Human PKMYT1 = molecular target: T1, Human PKMYT1 (Homo sapiens, UniProt Q99640); assay: PKMYT1 biochemical ADP-Glo enzymatic assay; details: ADP-Glo
# T1 construct: Human PKMYT1 75-362 was cloned as a TEV cleavable 6xHis fusion; 6xHis (TEV cleavable) (cleaved yes); made in house; host or cells: bacterial cells
# T1 sequence (Q99640 75-362): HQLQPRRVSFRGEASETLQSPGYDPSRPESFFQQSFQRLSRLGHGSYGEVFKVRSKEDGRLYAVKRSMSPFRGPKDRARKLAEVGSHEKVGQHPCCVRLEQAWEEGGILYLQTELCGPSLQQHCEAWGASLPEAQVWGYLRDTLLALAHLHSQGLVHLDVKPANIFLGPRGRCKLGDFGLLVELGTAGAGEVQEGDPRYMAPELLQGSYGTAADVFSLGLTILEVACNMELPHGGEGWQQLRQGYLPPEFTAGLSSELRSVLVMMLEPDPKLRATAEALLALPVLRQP
# How it was run: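 IC50 derived from luminescence (ADP-Glo Max) after PKMYT1 kinase domain, 15 nM, turned over 500 µM ATP for 60 min at 26 °C. Buffer contained 10 mM MgCl2, 1 mM EGTA and 0.01% Brij-35 at pH 7.5.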
# WEE1 = molecular target: T2, WEE1 (Homo sapiens, UniProt P30291); assay: Selectivity versus WEE1 assay (ADP-Glo enzymatic assay); format: biochemical; details: for IC50: ADP-Glo; for PKMYT1 vs. WEE1 selectivity: fold difference in selectivity for PKMYT1 over WEE1
# T2 construct: purchased Thermo Fisher PR7373A
# How it was run: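 Inhibition is measured as reduced ADP production, detected by luminescence with ADP-Glo, after enzyme (15 nM) and 30 µM ATP react for 60 min at 26° C in 1% DMSO-containing HEPES buffer, pH 7.5. Data are accepted only if replicate IC50s fall within 3-fold and r2 exceeds 0.9.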
# OVCAR 3 cells = assay: Cancer cell line proliferation assay, ATP-based cell viability (Cell Titre Glow), OVCAR 3 (CCNE1-amplified); details: KYSE30 (normal CCNE1) GI50 vs. OVCAR 3 (CCNE1-amplified) GI50
# Description: (§1) Cancer cell lines with either normal (KYSE-30) or amplified CCNE1 expression (OVCAR 3 —ovarian cancer) were evaluated for their sensitivity to PKMYT1 inhibitors using Cell Titre Glow assay (Promega G7573) as endpoint to assess cell proliferation. The luminescence signal was read on a PHERAStar FS microplate reader (BMG Labtech). Data analysis was performed using Microsoft Excel® and Gl50 (concentration that achieves 50% cell growth proliferation inhibition) estimates generated with GraphPad Prism v9.
# KYSE-30 cells = assay: Cancer cell line proliferation assay, ATP-based cell viability (Cell Titre Glow), KYSE-30 (normal CCNE1); details: Homo sapiens, KYSE-30 cells (normal CCNE1), concentration that achieves 50% cell growth proliferation inhibition, read-out: KYSE30 Gl50
# Description: as §1
# [1] = 15 nM PKMYT1 kinase domain, 500 µM ATP, 60 minutes at 26° C., banded
# [2] = 15 nM WEE1, 60 minutes at 26° C., banded
# [3] = banded, ">N" = at least in this band but could be higher
# [4] = PKMYT1 kinase domain 15 nM, banded values
# T2 sequence (P30291 whole entry): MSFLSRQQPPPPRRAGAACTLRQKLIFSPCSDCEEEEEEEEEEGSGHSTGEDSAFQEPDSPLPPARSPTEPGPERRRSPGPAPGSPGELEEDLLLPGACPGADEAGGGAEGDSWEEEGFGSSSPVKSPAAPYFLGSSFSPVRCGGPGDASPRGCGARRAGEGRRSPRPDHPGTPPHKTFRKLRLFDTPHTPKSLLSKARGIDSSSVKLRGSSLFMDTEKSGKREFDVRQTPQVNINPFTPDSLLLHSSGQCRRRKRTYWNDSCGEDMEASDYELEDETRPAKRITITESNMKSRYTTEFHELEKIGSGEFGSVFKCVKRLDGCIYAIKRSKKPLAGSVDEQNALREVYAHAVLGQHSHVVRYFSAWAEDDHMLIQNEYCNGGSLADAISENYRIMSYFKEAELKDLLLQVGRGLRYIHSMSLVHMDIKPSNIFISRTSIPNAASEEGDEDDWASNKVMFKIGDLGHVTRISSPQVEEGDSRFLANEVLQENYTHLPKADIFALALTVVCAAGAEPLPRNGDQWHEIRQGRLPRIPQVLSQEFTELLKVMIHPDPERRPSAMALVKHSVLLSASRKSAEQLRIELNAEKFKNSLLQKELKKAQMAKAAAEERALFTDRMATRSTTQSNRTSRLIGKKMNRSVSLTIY
Compound,IC50 (Human PKMYT1; [1]),IC50 (WEE1; [2]),PKMYT1 vs. WEE1 selectivity (WEE1; [3]),Selectivity ratio KYSE30 Gl50 vs. OVCAR3 Gl50 (OVCAR 3 cells),GI50 (KYSE-30 cells),IC50 (Human PKMYT1; [4]),"IC50 (WEE1; WEE1 15 nM, banded values)",PKMYT1 vs. WEE1 selectivity (WEE1; banded)
"Cc1ccc(O)c(C)c1NC(=O)c1cnc(Nc2cc(C)n(CC(C)C)n2)s1 [BAA-237, N-(3-hydroxy-2,6-dimethylphenyl)-2-((1-isobutyl-5-methyl-1H-pyrazol-3-yl)amino)thiazole-5-carboxamide]",< 50 nM,1000 to 11000 nM,W (10-<100 fold),Y (>20 fold),500 to 5000 nM,,,
"Cc1ccc(O)c(C)c1NC(=O)c1cnc(Nc2cccc(-c3cnn(C(F)F)c3)n2)s1 [BAA-399, 2-((6-(1-(difluoromethyl)-1H-pyrazol-4-yl)pyridin-2-yl)amino)-N-(3-hydroxy-2,6-dimethylphenyl)thiazole-5-carboxamide]",,,,Y (>20 fold),500 to 5000 nM,< 50 nM,1000 to 11000 nM,X (100-<1000 fold)
"CCCn1nc(Nc2ncc(C(=O)Nc3c(C)ccc(O)c3C)s2)c2ccccc21 [BAA-460, N-(3-hydroxy-2,6-dimethylphenyl)-2-((1-propyl-1H-indazol-3-yl)amino)thiazole-5-carboxamide]",,,,Y (>20 fold),500 to 5000 nM,50 to 1000 nM,1000 to 11000 nM,X (100-<1000 fold)
"Cc1ccc(O)c(C)c1NC(=O)c1cnc(Nc2nn(CCBr)cc2Cl)s1 [BAA-574, 2-((1-(2-Bromoethyl)-4-chloro-1H-pyrazol-3-yl)amino)-N-(3-hydroxy-2,6-dimethylphenyl)thiazole-5-carboxamide]",,,,X (3-20 fold),500 to 5000 nM,< 50 nM,1000 to 11000 nM,W (10-<100 fold)
Cc1ccc(O)c(C)c1NC(=O)c1cnc(Nc2ccn(CC(C)(C)O)n2)s1 [BAA-038],< 50 nM,1000 to 11000 nM,X (100-<1000 fold),Y (>20 fold),> 5000 nM,,,
"Cc1ccc(O)c(C)c1NC(=O)c1cnc(Nc2cccc(N3CCC(N)CC3)n2)s1 [BAA-274, 2-((6-(4-aminopiperidin-1-yl)pyridin-2-yl)amino)-N-(3-hydroxy-2,6-dimethylphenyl)thiazole-5-carboxamide]",< 50 nM,1000 to 11000 nM,W (10-<100 fold),Y (>20 fold),500 to 5000 nM,,,
"Cc1ccc(O)c(C)c1NC(=O)c1cnc(Nc2nn(C)cc2Cl)s1 [BAA-541, 2-((4-chloro-1-methyl-1H-pyrazol-3-yl)amino)-N-(3-hydroxy-2,6-dimethylphenyl)thiazole-5-carboxamide]",,,,Y (>20 fold),> 5000 nM,< 50 nM,1000 to 11000 nM,X (100-<1000 fold)
"Cc1cn(-c2ccncc2)nc1Nc1ncc(C(=O)Nc2c(C)ccc(O)c2C)s1 [BAA-372, N-(3-hydroxy-2,6-dimethylphenyl)-2-((4-methyl-1-(pyridin-4-yl)-1H-pyrazol-3-yl)amino)thiazole-5-carboxamide]",< 50 nM,50 to 1000 nM,W (10-<100 fold),Y (>20 fold),> 5000 nM,,,
"Cc1cn(CC(C)O)nc1Nc1ncc(C(=O)Nc2c(C)ccc(O)c2C)s1 (centres unmarked) [BAA-499, N-(3-hydroxy-2,6-dimethylphenyl)-2-((1-(2-hydroxypropyl)-4-methyl-1H-pyrazol-3-yl)amino)thiazole-5-carboxamide]",,,,Y (>20 fold),> 5000 nM,< 50 nM,1000 to 11000 nM,X (100-<1000 fold)
"COc1ccc(NC(=O)C(C)(C)C)nc1Nc1ncc(C(=O)Nc2c(C)ccc(O)c2C)s1.Cl [BAA-330, N-(3-Hydroxy-2.6-dimethylphenyl)-2-((3-methoxy-6-pivalamidopyridin-2-yl)amino)thiazole-5-carboxamide hydrochloride]",< 50 nM,> 11000 nM,Y (1000-5000 fold),Y (>20 fold),500 to 5000 nM,,,
"CCn1nc(Nc2ncc(C(=O)Nc3c(C)ccc(O)c3C)s2)cc1C [BAA-495, 2-((1-ethyl-5-methyl-1H-pyrazol-3-yl)amino)-N-(3-hydroxy-2,6-dimethylphenyl)thiazole-5-carboxamide]",,,,Y (>20 fold),> 5000 nM,50 to 1000 nM,1000 to 11000 nM,W (10-<100 fold)
"Cc1ccc(O)c(C)c1NC(=O)c1cnc(Nc2cccc(OC(C)C)n2)s1 [BAA-429, N-(3-hydroxy-2,6-dimethylphenyl)-2-((6-isopropoxypyridin-2-yl)amino)thiazole-5-carboxamide]",,,,Y (>20 fold),< 500 nM,< 50 nM,> 11000 nM,X (100-<1000 fold)
"Cc1ccc(O)c(C)c1NC(=O)c1cnc(Nc2cc(C(F)(F)F)nc(NCCC(C)(C)C)n2)s1 [BAA-322, 2-((2-((3,3-dimethylbutyl)amino)-6-(trifluoromethyl)pyrimidin-4-yl)amino)-N-(3-hydroxy-2,6-dimethylphenyl)thiazole-5-carboxamide]",50 to 1000 nM,> 11000 nM,X (100-<1000 fold),Y (>20 fold),500 to 5000 nM,,,
"Cc1cn(-c2ccc(C(F)(F)F)nc2)nc1Nc1ncc(C(=O)Nc2c(C)ccc(O)c2C)s1 [BAA-367, N-(3-hydroxy-2,6-dimethylphenyl)-2-((4-methyl-1-(6-(trifluoromethyl)pyridin-3-yl)-1H-pyrazol-3-yl)amino)thiazole-5-carboxamide]",50 to 1000 nM,> 11000 nM,X (100-<1000 fold),Y (>20 fold),> 5000 nM,,,
"Cc1ccc(O)c(C)c1NC(=O)c1cnc(Nc2cc(C)n(C3CCCC3)n2)s1 [BAA-232, 2-((1-cyclopentyl-5-methyl-1H-pyrazol-3-yl)amino)-N-(3-hydroxy-2,6-dimethylphenyl)thiazole-5-carboxamide]",< 50 nM,1000 to 11000 nM,W (10-<100 fold),Y (>20 fold),> 5000 nM,,,
"Cc1ccc(O)c(C)c1NC(=O)c1cnc(Nc2cccc(NC(=O)C(C)(C)C)n2)s1 [BAA-339, N-(3-Hydroxy-2.6-dimethylphenyl)-2-((6-pivalamidopyridin-2-yl)amino)thiazole-5-carboxamide]",< 50 nM,> 11000 nM,Y (1000-5000 fold),Y (>20 fold),500 to 5000 nM,,,
"Cc1c(O)cc(Br)c(C)c1NC(=O)c1cnc(Nc2nn(C3CCS(=O)(=O)C3)c(C)c2Br)s1 (centres unmarked) [BAA-557, 2-((4-Bromo-1-(1,1-dioxidotetrahydrothiophen-3-yl)-5-methyl-1H-pyrazol-3-yl)amino)-N-(3-bromo-5-hydroxy-2.6-dimethylphenyl)thiazole-5-carboxamide]",,,,Y (>20 fold),> 5000 nM,1000 to 11000 nM,,
